Test results published in a melting point compilation (Tetko et al.; mined from patent text by program, amines drawn as free bases though some values may be those of a salt).

Compound `COc1ccc(CC(=O)Nc2nc3c(ncn3C3CC(O)C(COC(c4ccccc4)(c4ccc(OC)cc4)c4ccc(OC)cc4)O3)c(=O)[nH]2)cc1` (stereo not given) has a melting point of 148 to 156 °C. Compound `CON1C=C2C=C(SC)N=C(Cl)N2N1` has a melting point of 243 to 244 °C. Work on `O=C(O)c1c[nH]c2c(-c3ccncc3)c(-c3ccc(F)cc3)nn2c1=O` yielded a melting point of 215 to 218 °C. Compound `O=[N+]([O-])c1ccc(CCCCCCCCCCCCCCOCCCCCCCCCCCCCCc2ccc([N+](=O)[O-])cc2)cc1` has a melting point of 57 to 60 °C. `COc1ccc(C(=O)NCC(O)CC(=O)O)cc1OCc1ccccc1` (stereo not given) gave a melting point of 158 to 160 °C. Compound `CN1C(=O)C(NC(=O)c2ccccc2)C(C)(C)SC1=S` (stereo not given) has a melting point of 184 to 185 °C. For `CCc1cccc(C)c1CNc1cc(C(=O)OC)cn2c(C)nnc12`, the melting point was 214 °C. `CCOC(=O)C1=C(C)NC(C(OCC)OCC)=C(C(=O)OCC)C1c1ccccc1[N+](=O)[O-]` (stereo not given) gave a melting point of 80 to 81.5 °C. For `CSCCC(NC(=O)Nc1cccc(C)c1)C(=O)O` (racemic), the melting point was 143 °C. In the case of `CC(C)NOC(=O)c1n[nH]c2c(=O)[nH]c3cc(Cl)ccc3c(=O)c12`, the melting point is reported as 224 °C. Work on `N#CCC1Cn2cccc2C1=O` (stereo not given) yielded a melting point of 68 °C. With `CCCCNC(=O)Nc1ccccc1C(=O)OC` the melting point was 84 to 85 °C. For `CCOC(=O)c1cc(CC)sc1Nc1cc(F)ccc1[N+](=O)[O-]`, the melting point was 87 to 88 °C. With `CCOC(=O)N1CCN(C(=CNc2cccc(OC)c2)C(=O)OC)CC1` the melting point was 120 to 122 °C. Work on `CCCNC(=O)C(C)(C)n1cc(C)c(-c2ccccc2)n1` yielded a melting point of 47 to 50 °C. Compound `Nc1ccc(C#Cc2ccc(C#Cc3ccccc3)cc2[N+](=O)[O-])cc1` has a melting point of 166 to 168 °C. With `COc1ccc2cc(Br)sc2c1` the melting point was 62 °C. `CCCCCS(=O)(=O)NC(=O)/C=C/c1ccc(OCCC(C)=O)cc1Oc1ncc(C(F)(F)F)cc1Cl` gave a melting point of 180 to 181 °C. In the case of `COc1ccc(CONCc2ccc(OC)cc2OC)cc1`, the melting point is reported as 52 to 55 °C. With `O=C1c2ccc(S(=O)(=O)c3ccccc3)cc2C(=O)c2cc3ccccc3cc21` the melting point was > 260 °C. Work on `CCOC(=O)CC(=O)CCNC(=O)OCc1ccccc1` yielded a melting point of 25 to 27 °C. With `CC(C)(O)C(=O)CC(=O)c1ccc(C(=O)CC(=O)C(C)(C)O)cc1` the melting point was 276 to 278 °C. `CC(C)(N)Cc1c[nH]c2ccc(Cl)cc12` showed a melting point of 156 to 158 °C. With `COC(=O)C12COc3cc(F)ccc3N1N=C(C(=O)Nc1ccc(C(F)(F)F)cc1)C2` (stereo not given) the melting point was 178 to 181 °C. `N#CCn1nc(-c2c(-c3ccccc3)nn3ccccc23)ccc1=O` gave a melting point of 218 to 219 °C. In the case of `O=c1[nH]c(=Cc2ccc(OCc3ccccc3)cn2)c(=O)[nH]c1=Cc1ccc2c(c1)OCO2`, the melting point is reported as 255 to 256 °C. Work on `ClCc1cc2ccccc2nc1I` yielded a melting point of 138 to 140 °C. Compound `COCCc1cc(N2CCN(C)CC2)n2nc(SC)c(S(=O)(=O)c3ccccc3)c2n1` has a melting point of 160 to 161 °C. Compound `CC(C)NC(=O)c1cnc(N2CCC(N3C(=O)OCc4ccccc43)CC2)c(Cl)c1` has a melting point of 216 °C. Compound `Nc1nc(-n2cc(C(=O)O)c(=O)c3cc(F)c(N4CC(O)C4)c(Cl)c32)c(F)cc1F` has a melting point of 235 to 238 °C. With `CCOC(=O)C=Cc1ccc2c(c1)CC(NC(=O)OC(C)(C)C)CC2` (stereo not given) the melting point was 99 to 100 °C. Work on `COc1ccc(CSc2ccncc2C(=O)O)cc1` yielded a melting point of 230 °C. `Cc1ccc(C(=O)O)c(NC(=O)C(F)(F)F)c1` showed a melting point of 178 to 180 °C. In the case of `CCCc1nc2c(N)nc3cccnc3c2n1CC1(O)CCOCC1`, the melting point is reported as 209 to 210 °C. `CCOC(=O)C1=C(C)NC(C)=C(C(=O)OCC)C1c1ccccc1/C=C(\CC)C(=O)OCC` showed a melting point of 92 to 94 °C. For `OC(c1ccc2c(c1)COCO2)c1cn(C(c2ccccc2)(c2ccccc2)c2ccccc2)cn1` (stereo not given), the melting point was 165 to 167 °C. Compound `CC(=O)C(=[N+]=[N-])C(=O)CCc1ccc(S(N)(=O)=O)cc1` has a melting point of 110 to 112 °C. `O=C1CCCc2c1cccc2N1CCN(CCCCOc2ccc3ccc(=O)[nH]c3n2)CC1` gave a melting point of 158 to 160 °C. `CC(CCc1ccc(F)cc1)(Cn1ccnc1)Sc1cccc(Cl)c1Cl` (stereo not given) gave a melting point of 131 to 132 °C. Compound `Cc1cc(CN(Cc2ccsc2)c2sc(-c3ccc(C(F)(F)F)cc3)nc2C)cc(C)c1OC(C)(C)C(=O)O` has a melting point of 90 to 100 °C. For `COc1c(OC)c(OC(C)=O)c2cc(Cl)ccc2c1O`, the melting point was 106 to 107 °C. Compound `CCOC(=O)C1=C(N)N=C(OCC)C(C(=O)OCC)C1c1ccco1` (stereo not given) has a melting point of 110 °C. For `CSc1nn2c(O)cc(CN(C)C)nc2c1S(=O)(=O)c1ccccc1`, the melting point was > 220 °C. `CCNC(=O)N(CC)C(=O)c1nc(Cl)c(Cl)[nH]1` showed a melting point of 146 °C. Compound `CCOCc1nc2c(N)nc(C)c(C)c2n1CCCON=C(C)C` has a melting point of 123 to 125 °C. `CCOC(=O)Cn1c(-c2cc3c(cc2[N+](=O)[O-])OCO3)nc2ccccc21` showed a melting point of 136 to 138 °C. Compound `CCOC(=O)c1cnc2c(C(=O)Nc3cc4cccnc4cc3OC)csc2c1` has a melting point of 265 to 270 °C. For `NS(=O)(=O)c1ccc(-n2nc(C(F)(F)F)cc2-c2ccc(-c3ccco3)c(Cl)c2)cc1F`, the melting point was 172 °C. Compound `COC(=O)COc1ccc(Nc2cc(Nc3ccc(F)c(Cl)c3)ncn2)cc1` has a melting point of 191 to 193 °C. Compound `O=C(c1ccc(CN2CC=CCC2)cc1)N1CCN2C(=O)OC(c3ccccc3)(c3ccccc3)C2C1` (stereo not given) has a melting point of 189 to 191 °C.
